Common to all, as to type: cell-based
For one experiment, the system named is SK-OV-3 cell lines. In words: MTT cell growth inhibition, combination with taxol, SK-OV-3. The conditions noted are these: combined with taxol, 72 hrs. Here is the method: Assay 6: Combination of Compound M1 with Standard Agents in Different Cell Lines
Day 0 • The cells were pelleted and counted. • Cells were plated at desired density (100 μl/well) in complete media in a 96-well plate in triplicates. A column for Day “0” reading was also seeded. (18-20 hrs after initial plating and before addition of the inhibitors) • Plates were incubated at 37° C. and 5% CO2. Day 1 • 10 μl of MTT (5 mg/ml) were added to the column designated for Day “0”. It was mixed well and incubated at 37° C. and 5% CO2 for 3.5 h. Cells were pelleted down at 4000 rpm for 10 minutes. • Media was aspirated out and 150 μl of DMSO were added to the cells and mixed by pipetting to dissolve the crystals • The plate was read at A560 nm and A640 nm. Day 2 • A series of dilutions of the inhibitors were initially made in 100% DMSO and further diluted in growth medium. • Cells were treated with either single agent of DMSO, compound M1, taxol, and a combination of compound M1 and taxol (MDA-MB-231, MCF-7, ZR.75.1 and SK-OV-3). […] Crystals were dissolved by repeated pipetting. • The plate was read at A560 nm and A640 nm. […]
Reference absorbance values were subtracted from test absorbance values. Day 0 values were subtracted from final day absorbance values for determining cell growth. % Cell growth inhibitions were calculated.

The next experiment concerns TNFα mRNA. In words: TNFα mRNA expression in LPS-stimulated mouse bone marrow derived macrophages (real-time PCR). As to conditions: LPS (1 μg/ml) stimulated mouse BMDM; 1 μM Compound M1 vs 1 μM dasatinib (FIG. 2A). On the procedure: Assay 2: Evaluation of mRNA Expression Levels of IL-10, TNFα, and Arginase-1 in LPS-Stimulated (1 μg/ml) Mouse Bone Marrow Derived Macrophages (BMDM).
Mouse-Bone Marrow Cell Isolation
• Femur bones from healthy mice were collected taking all aseptic precautions. • Bones were severed proximal to each joint using sterile scissors. • A 10 ml syringe with 25-G needle was filled with cold sterile wash medium (DMEM/F12 medium+10% FBS (fetal bovine serum)+1% Penicillin-streptomycin). • The needle was inserted into bone marrow cavity of femur and the cavity was flushed with 2-5 mL of wash medium, until the bone cavity appeared white. • Wash medium was collected in a 50 mL tube and centrifuged at 500×g for 10 minutes at room temperature. • Cells were resuspended in DMEM/F12 medium and cell count was taken. […]
Fold change in the mRNA expression was calculated by 2^−ΔΔCt method and data was plotted using GraphPad Prism.

A further experiment relates to TNFα. The experiment in a line: TNFα levels in LPS-stimulated human macrophages by ELISA. The conditions noted are these: LPS (1 μg/mL) stimulated human macrophages, supernatant after 4 hours. Here is the method: Assay 3: TNFα Levels in LPS-Stimulated (1 μg/ml) Human Macrophages Following Treatment with Compound M1 was Estimated by ELISA.
Isolation of Human PBMCs (Peripheral Blood Mononuclear Cells)
The second layer from the top, the buffy coat, was collected carefully with a serological pipette and placed in a new 50 ml centrifuge tube. The volume was made up to 50 mL with 1×PBS and centrifuged at 250×g for 10 min at room temperature. • The supernatant was discarded and red blood cells (RBCs) were resuspended with 5 mL ACK lysis buffer to facilitate RBC lysis and left at room temperature for 5 min. The tube was filled up with 1×PBS and centrifuged at 250×g for 10 min at room temperature. • The supernatant was discarded and the pellet was re-suspended in 5 mL of RPMI complete media. • Cells were counted on a haemocytometer. […] Assay Protocol • Cells were scraped and centrifuged at 250×g for 8 mins and cell concentration was determined. • 0.2×10^6 human macrophages were plated/well in a 96-well plate in RPMI CM with 50 ng/mL of Human M-CSF-1 and incubated overnight at 37° C. and 5% CO2. • Human macrophages were treated with compound M1 for 1 hour followed by addition of LPS (1 μg/mL).
Fold change was calculated, and graphs were plotted using GraphPad Prism. TNFα cytokine levels measured in LPS stimulated human macrophages supernatants were reduced by 75% following treatment with compound M1.
(An ELISA detects its analyte on a solid surface through an enzyme-linked reagent.)

With `CC[C@H](Nc1ncnc2[nH]c(O)nc12)c1oc2ccccc2c(=O)c1-c1cccc(F)c1` [Compound M1, (S)-3-(3-fluorophenyl)-2-(1-((8-hydroxy-9H-purin-6-yl)amino)propyl)-4H-chromen-4-one], in the experiment on SK-OV-3 cell lines, the “cell growth inhibition in combination” value is reported as “synergistic results”. For the same molecule, the “TNFα mRNA expression, potency relative to dasatinib” value in the experiment with TNFα mRNA is recorded as “more potent than dasatinib”. The “reduction of TNFα cytokine levels in supernatants” value in the experiment with TNFα turned out to be 75%.

Values taken from patent US12428422B2, “Purine derivatives as SIK-3 inhibitors” (RHIZEN PHARMACEUTICALS AG, priority 2020, dated 2025).
